Data as given in ChEMBL document CHEMBL1201862, “PubChem BioAssay data set” (2004).
Several values for one entry are separate records, joined by “and”; a condition that tells them apart may be missing. Equal entries are not always repeated.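 Each compound was tested at five concentrations against cells in 96-well plates for 48 hours. GI50: concentration for 50% inhibition of growth.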 Activity calls are given as the source filed them. Cut-off read from the data, not from the text of the source: active = GI50 up to about 1.1 µM and inactive = higher.

Experiments:
Test in all cases: NCI tumour cell line growth inhibition, 48 h
RXF 393 = tested on: RXF 393
U-251 = tested on: U-251
NCI-H23 = tested on: NCI-H23
MCF7 = tested on: MCF7
KM12 = tested on: KM12
A549 = tested on: A549
TK-10 = tested on: TK-10
M14 = tested on: M14
EKVX = tested on: EKVX
MOLT-4 = tested on: MOLT-4
SK-MEL-2 = tested on: SK-MEL-2
LOX IMVI = tested on: LOX IMVI
HL-60 = tested on: HL-60
Hs-578T = tested on: Hs-578T
SF-295 = tested on: SF-295
UO-31 = tested on: UO-31
NCI-H460 = tested on: NCI-H460
OVCAR-5 = tested on: OVCAR-5
SNB-75 = tested on: SNB-75
MDA-MB-435 = tested on: MDA-MB-435

Measured: GI50

CC(=O)OCC1OC(n2c(C)c(C)cc(C#N)c2=S)C(OC(C)=O)C(OC(C)=O)C1OC(C)=O (stereo not drawn)
inactive: RXF 393 > 100 µM | U-251 > 100 µM | NCI-H23 > 100 µM | MCF7 > 100 µM | KM12 > 100 µM | A549 > 100 µM | TK-10 > 100 µM | M14 > 100 µM | EKVX > 100 µM | MOLT-4 > 100 µM | SK-MEL-2 > 100 µM and 72.1 µM | LOX IMVI > 100 µM | HL-60 > 100 µM | Hs-578T > 100 µM | SF-295 > 100 µM | UO-31 > 100 µM | NCI-H460 > 100 µM

O=C1c2ccccc2C(=O)c2c(Nc3ccc4c5c(cccc35)C(=O)c3ccccc3-4)cccc21
inactive: RXF 393 > 100 µM | OVCAR-5 > 100 µM | U-251 > 100 µM | NCI-H23 > 100 µM | KM12 > 100 µM | A549 > 100 µM | SNB-75 > 100 µM | TK-10 > 100 µM | M14 > 100 µM | EKVX > 100 µM | MOLT-4 > 100 µM | SK-MEL-2 > 100 µM | LOX IMVI > 100 µM | Hs-578T > 100 µM | SF-295 > 100 µM | UO-31 > 100 µM | MDA-MB-435 > 100 µM | NCI-H460 > 100 µM

O=[N+]([O-])c1ccc(N2N=C(c3ccc4ccccc4c3O)CC2c2ccc(Cl)cc2)c([N+](=O)[O-])c1 (stereo not drawn)
inactive: RXF 393 28.6 µM | OVCAR-5 > 100 µM | U-251 25.9 µM | NCI-H23 > 100 µM | MCF7 20.3 µM | KM12 21.8 µM | A549 30.4 µM | SNB-75 73.5 µM | TK-10 53.1 µM | M14 50.4 µM | MOLT-4 17 µM | SK-MEL-2 33.6 µM | Hs-578T 37.9 µM | SF-295 34.7 µM | UO-31 > 100 µM | MDA-MB-435 16.9 µM | NCI-H460 25.4 µM

c1ccc(CSC(SCc2ccccc2)c2ccc3c(c2)OCO3)cc1
inactive: RXF 393 > 10 µM | U-251 > 10 µM | NCI-H23 > 10 µM | MCF7 > 10 µM | KM12 > 10 µM | A549 > 10 µM | SNB-75 > 10 µM | TK-10 > 10 µM | M14 > 10 µM | EKVX > 10 µM | MOLT-4 > 10 µM | SK-MEL-2 > 10 µM | LOX IMVI > 10 µM | HL-60 > 10 µM | Hs-578T > 10 µM | SF-295 > 10 µM | UO-31 > 10 µM | NCI-H460 > 10 µM

N#Cc1ccccc1C#C/C=C\C#Cc1ccccn1
inactive: RXF 393 14.1 µM | OVCAR-5 28.6 µM | U-251 18.5 µM | NCI-H23 12.3 µM | MCF7 14.4 µM | A549 19.8 µM | SNB-75 24.8 µM | TK-10 30.9 µM | M14 15.5 µM | EKVX 22.9 µM | SK-MEL-2 15 µM | HL-60 6.71 µM | Hs-578T 16.4 µM | SF-295 20 µM | UO-31 15.3 µM | NCI-H460 20.4 µM

COc1ccc(Nc2ccc3ccccc3c2-c2c(O)ccc3ccccc23)cc1
inactive: RXF 393 20.2 µM | OVCAR-5 16.9 µM | U-251 22.6 µM | NCI-H23 15.2 µM | MCF7 11.8 µM | KM12 16.1 µM | SNB-75 19.9 µM | TK-10 27.7 µM | EKVX 14.9 µM | MOLT-4 10.1 µM | SK-MEL-2 14.4 µM | LOX IMVI 17.9 µM | HL-60 31.1 µM | SF-295 18.4 µM | UO-31 13.6 µM | MDA-MB-435 3.99 µM | NCI-H460 16.4 µM

[N-]=[N+]=CC(=O)CCC(=O)N(c1ccccc1)c1ccccc1
inactive: RXF 393 > 10 µM | OVCAR-5 > 10 µM | U-251 > 10 µM | NCI-H23 > 10 µM | MCF7 > 10 µM | KM12 > 10 µM | A549 > 10 µM | SNB-75 > 10 µM | TK-10 > 10 µM | M14 > 10 µM | EKVX > 10 µM | MOLT-4 > 10 µM | SK-MEL-2 6.98 µM | LOX IMVI > 10 µM | HL-60 > 10 µM | SF-295 > 10 µM | UO-31 > 10 µM | MDA-MB-435 > 10 µM | NCI-H460 > 10 µM

O=C(CCCN1CCC2(CC1)CC(=O)N(N1CCOCC1)C2=O)c1ccccc1
inactive: RXF 393 > 100 µM | OVCAR-5 > 100 µM | U-251 > 100 µM | NCI-H23 > 100 µM | MCF7 > 100 µM | KM12 > 100 µM | A549 > 100 µM | SNB-75 > 100 µM | TK-10 > 100 µM | M14 > 100 µM | EKVX > 100 µM | MOLT-4 > 100 µM | LOX IMVI > 100 µM | HL-60 > 100 µM | SF-295 > 100 µM | UO-31 > 100 µM | MDA-MB-435 19.1 µM

COC(=O)[C@]1(c2cc3ccccc3[nH]2)CC2CN(C(=O)OCc3ccccc3)C1C=C2OC (stereo partly drawn)
inactive: RXF 393 22.7 µM | OVCAR-5 21.3 µM | U-251 26.6 µM | NCI-H23 40.7 µM | MCF7 25.6 µM | KM12 29 µM | A549 31.5 µM | SNB-75 23 µM | TK-10 48.1 µM | M14 20.8 µM | EKVX 36.5 µM | MOLT-4 22.2 µM | SK-MEL-2 17.5 µM | LOX IMVI 34 µM | HL-60 22.8 µM | SF-295 27.2 µM | MDA-MB-435 20.7 µM | NCI-H460 33.1 µM

O=C(Cc1csc(N/N=C2\C(=O)Nc3ccccc32)n1)Nc1ccccc1
inactive: RXF 393 62.7 µM | OVCAR-5 > 100 µM | U-251 22.6 µM | NCI-H23 38.9 µM | MCF7 54.3 µM | KM12 29.2 µM | A549 39.9 µM | SNB-75 28.5 µM | TK-10 44.1 µM | M14 38.3 µM | EKVX 19.9 µM | MOLT-4 42.5 µM | SK-MEL-2 91.8 µM | LOX IMVI 46.5 µM | HL-60 37.1 µM | SF-295 28.9 µM | UO-31 25.3 µM | MDA-MB-435 39.5 µM | NCI-H460 31.6 µM

COc1cc([C@H]2CC(=O)C[C@H](c3cc(OC)c(OC)c(OC)c3)C23C(=O)c2ccccc2C3=O)cc(OC)c1OC
inactive: RXF 393 32.5 µM | OVCAR-5 > 100 µM | U-251 41.3 µM | NCI-H23 > 100 µM | MCF7 71.3 µM | KM12 > 100 µM | A549 > 100 µM | TK-10 > 100 µM | M14 > 100 µM | EKVX > 100 µM | MOLT-4 29.1 µM | SK-MEL-2 42.4 µM | Hs-578T 46.6 µM | SF-295 47.1 µM | UO-31 > 100 µM | MDA-MB-435 > 100 µM | NCI-H460 91.2 µM
